Test results from article PMC5515844, “A new Prenylated Flavonoid induces G0/G1 arrest and apoptosis through p38/JNK MAPK pathways in Human Hepatocellular Carcinoma cells” (Scientific Reports, 2017).

Columns and labels:
U87 = experiment: MTT cytotoxicity assay; type: cell-based; details: Homo sapiens, U-87 MG, 48 h, mean ± SD
Procedure: (§1) HepG2 and Hep3B (human hepatoma cells), Bcap37 and MCF-7 (human breast cancer cells), TE-1 (human esophageal cancer cells), A549 (human lung carcinoma cells), U251 and U87 (human glioma cells), were cultured in Dulbecco’s modified Eagle’s medium (DMEM) supplemented with 10% fetal bovine serum (FBS) and 1% penicillin/streptomycin (10000 U/mL penicillin, 10000 μg/ml streptomycin). SH-SY5Y (human neuroblastoma cells), LO2 (human normal liver cell) were grown in RPMI 1640 containing 10% FBS and 100 µg/ml penicillin, 100 µg/ml streptomycin. HepG2, Hep3B, MCF-7, TE-1, A549, U87, U251 and SHSY5Y cells were obtained from the American Type Culture Collection (Manassas, VA, USA). Bcap37 and LO2 cells were purchased from the Cell Bank of Chinese Academy of Sciences (Shanghai, China). All cells were incubated in a humidified atmosphere containing 5% CO2 at 37 °C.
(§2) Cells seeded in 96-well plates with 5 × 10^3 cells/well were adhered overnight and incubated with vehicle control (DMSO) or diverse concentrations of compounds for 48 h. After treatment, 20 μL of MTT (5 mg/mL) was added to each well and incubated for another 4 h at 37 °C. Then, 150 μL of DMSO/well was appended after removed the supernatant to dissolve the formed purple formazan crystals and the color absorbance was measured at 490 nm using a microplate reader (Molecular Devices, Thermo, CA, USA). The inhibition rate (%) was calculated as (A490(control) − A490(drug groups))/(A490(control) − A490(blank)) × 100 and the value of IC50 (the concentration that caused 50% inhibition of cell viability) was determined using SPSS 20.0. This experiment was measured in triplicate, independently.

Bcap37 = experiment: MTT cytotoxicity assay; type: cell-based; details: Homo sapiens, 48 h, mean ± SD
Procedure: as §1, §2

A549 = experiment: MTT cytotoxicity assay; type: cell-based; details: Homo sapiens, 48 h, mean ± SD
Procedure: as §1, §2

U251 = experiment: MTT cytotoxicity assay; type: cell-based; details: Homo sapiens, U-251, 48 h, mean ± SD
Procedure: as §1, §2

MCF-7 = experiment: MTT cytotoxicity assay; type: cell-based; details: Homo sapiens, MCF7, 48 h, mean ± SD
Procedure: as §1, §2

TE-1 = experiment: MTT cytotoxicity assay; type: cell-based; details: Homo sapiens, 48 h, mean ± SD
Procedure: as §1, §2

[1] = test system: cyclin D1, cyclin E1, CDK2, CDK4, cleaved-caspase 3, PARP, p38, JNK, ERK in Hep3B cells; experiment: Western blotting analysis; type: cell-based, human
Procedure: (§3) Cells that after treatment were harvested and lysed by radio-immunoprecipitation assay (RIPA) buffer containing protease inhibitor (PMSF, 1 mM) on ice for 30 min. Cells lysates were centrifuged at 12,000 g for 15 min at 4 °C and following the protein concentration in the supernatant was determined using a BCA protein assay kit (Thermo Scientific, Waltham, USA), then cell extracts were added SDS-PAGE sample loading buffer and denatured at 100 °C for 10 min. Equal amount of protein (30 μg) were separated on a 8–15% SDS-PAGE and transferred onto PVDF membranes (0.2 μm, Millipore) using an electroblotting apparatus (Bio-Rad). The membranes were blocked with 5% milk in PBS-T (PBS containing 0.1% Tween 20) for 2 h at room temperature and incubated with primary antibodies at 4 °C overnight. After washed three times with PBS-T, the membranes were incubated with horseradish peroxi-dase (HRP)-conjugated secondary antibody (1:5,000) at room temperature for 2 h, then washed again, and the immunoreactive bands were detected using ECL reagents (ThermoFisher, Waltham, MA).

[2] = test system: cyclin D1, cyclin E1, CDK2, CDK4, cleaved-caspase 3, PARP, p38, JNK, ERK in HepG2 cells; experiment: Western blotting analysis; type: cell-based, human
Procedure: as §3

[3] = Gross evaluation and pathological study in xenograft nude mice; type: in vivo, BALB/c nude mice
Procedure: All of the animal studies and procedures were conducted in accordance with the approval and guidelines of the Shenyang Pharmaceutical University Institutional Animal Care and Use Committee (permission number: SCXK (Jing) 2014-0004). Male BALB/c nude mice at the age of six weeks were obtained from Beijing HFK Bioscience Co., Ltd (Beijing, China). Hep3B cells (1 × 10^5 cells) were implanted subcutaneously into the right backsides of each nude mouse. After 12 days, when the tumor size reached about 100 mm^3, the mice were randomly divided into three groups (n = 6) and intraperitoneally injected with vehicle control or daphnegiravone D (5 and 10 mg/kg body weight) every two days for two weeks. The body weight and tumor sizes were measured every day, and the tumor volume was determined by caliper measurements and calculated by the formula: 0.5236 × L × W ^2, where L is the long axis and W is the short axis of the tumor. The experiment was terminated when the tumors volume of the control group reached about 3000 mm^3. The mice were sacrificed, and the tumors, hearts, livers, spleens, lungs and kidneys were excised immediately to evaluate the antitumor activity and toxicity of daphnegiravone D.
Mouse major organs (heart, liver, spleen, lung, kidney) and tumors were isolated and fixed in 10% buffered formalin for 3 days and embedded in paraffin. […]

Compound `COc1c(-c2ccc(O)c(CC=C(C)C)c2)oc2c(CC=C(C)C)c(O)cc(O)c2c1=O` [Compound 1, daphnegiravone D] has an IC50 (U87) of 35.1 ± 3.97 µM, an IC50 (Bcap37) of 28 ± 1.94 µM and an IC50 (A549) of 21.8 ± 1.34 µM. The IC50 (U251) was 33.4 ± 3.03 µM, the IC50 (MCF-7) was 22.3 ± 2.18 µM and the IC50 (TE-1) was 19.3 ± 2.3 µM. For the same compound, the “expression of cyclin D1” value [1] was “not significantly changed”, the “phosphorylated status of ERK” value [1] was “no distinct change” and the “phosphorylation level of p38” value ([1]; 48 h) was “markedly increased”. The “levels of cleaved-caspase 3 and -PARP” value ([1]; 48 h, dose-dependent) was “increased”, the “level of phosphorylated JNK” value ([1]; dose-dependent) was “dramatically reduced” and the “levels of cyclin E1, CDK2 and CDK4” value ([1]; dose-dependent) was “decreased”. The “expression of cyclin D1” value ([2]; HepG2) was “not significantly changed”, the “phosphorylated status of ERK” value ([2]; HepG2) was “no distinct change” and the “phosphorylation level of p38” value ([2]; HepG2, 48 h) was “markedly increased”. For the same compound, the “levels of cleaved-caspase 3 and -PARP” value ([2]; HepG2, 48 h, dose-dependent) was “increased”, the “level of phosphorylated JNK” value ([2]; HepG2, dose-dependent) was “dramatically reduced” and the “levels of cyclin E1, CDK2 and CDK4” value ([2]; HepG2, dose-dependent) was “decreased”. The “histopathology of heart, liver, spleen, lungs and kidneys” value ([3]; 5 mg/kg and 10 mg/kg, H&E, vs vehicle control group) was “no obvious differences” and the “body weight of the mice” value ([3]; 5 and 10 mg/kg i.p. every two days for two weeks) was “did not affect the body weight”.
